Reference: ChEMBL document CHEMBL1201862, “PubChem BioAssay data set” (2004)
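Test compounds were applied to cells in 96-well plates for 48 hours at 5 doses. GI50 marks 50% less growth.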 Active and inactive are the calls of the source. Rule as the data show it: active = GI50 up to about 1.1 µM and inactive = higher.

Columns and labels:
Assay in all cases: inhibition of tumour cell growth, NCI panel, 48 h
MDA-MB-435 = system: MDA-MB-435
CCRF-CEM = system: CCRF-CEM
MCF7 = system: MCF7
HL-60 = system: HL-60
TK-10 = system: TK-10
SNB-75 = system: SNB-75
OVCAR-3 = system: OVCAR-3
SF-295 = system: SF-295
OVCAR-8 = system: OVCAR-8
HCT-15 = system: HCT-15
EKVX = system: EKVX
COLO 205 = system: COLO 205
NCI-H460 = system: NCI-H460
A549 = system: A549
786-0 = system: 786-0
BT-549 = system: BT-549
SK-MEL-28 = system: SK-MEL-28
A498 = system: A498
SNB-19 = system: SNB-19
HCC 2998 = system: HCC 2998

SMILES: CN(O)C(=O)c1ccc(OCc2cccc(Cl)c2)cc1
- GI50 (MDA-MB-435): 23.6 µM (inactive)
- GI50 (CCRF-CEM): 5.12 µM (inactive)
- GI50 (MCF7): 32.4 µM (inactive)
- GI50 (HL-60): 6.12 µM (inactive)
- GI50 (TK-10): 57.4 µM (inactive)
- GI50 (SNB-75): 47.1 µM (inactive)
- GI50 (OVCAR-3): 19.2 µM (inactive)
- GI50 (SF-295): 13.2 µM (inactive)
- GI50 (OVCAR-8): 19 µM (inactive)
- GI50 (HCT-15): 3.52 µM
- GI50 (EKVX): 30.3 µM (inactive)
- GI50 (COLO 205): 23.6 µM (inactive)
- GI50 (NCI-H460): 9.4 µM (inactive)
- GI50 (A549): 16 µM (inactive)
- GI50 (786-0): 12.4 µM (inactive)
- GI50 (BT-549): 22.8 µM (inactive)
- GI50 (SK-MEL-28): 40.7 µM (inactive)
- GI50 (A498): 25.8 µM (inactive)
- GI50 (SNB-19): 24.6 µM (inactive)
- GI50 (HCC 2998): 15.3 µM (inactive)

SMILES: CC(C)(C)c1ccc2c(c1)OCc1n[nH]c(n1)COc1cc(C(C)(C)C)ccc1OCCOCCO2
- GI50 (MDA-MB-435): 3.21 µM (inactive)
- GI50 (CCRF-CEM): 5.31 µM (inactive)
- GI50 (MCF7): 3.31 µM (inactive)
- GI50 (HL-60): 4.35 µM (inactive)
- GI50 (TK-10): 2.58 µM (inactive)
- GI50 (SNB-75): 5.27 µM (inactive)
- GI50 (OVCAR-3): 2.53 µM (inactive)
- GI50 (SF-295): 3.55 µM (inactive)
- GI50 (OVCAR-8): 3.79 µM (inactive)
- GI50 (HCT-15): 4.95 µM
- GI50 (EKVX): 4.3 µM (inactive)
- GI50 (COLO 205): 2.31 µM (inactive)
- GI50 (NCI-H460): 3.13 µM (inactive)
- GI50 (A549): 3.01 µM (inactive)
- GI50 (786-0): 4.45 µM (inactive)
- GI50 (BT-549): 2.81 µM (inactive)
- GI50 (SK-MEL-28): 2.7 µM (inactive)
- GI50 (A498): 5.64 µM (inactive)
- GI50 (SNB-19): 4.23 µM (inactive)
- GI50 (HCC 2998): 3.72 µM (inactive)

SMILES: CCCCCCCCCCCCCCCCCCOCC(COP(=O)([O-])OCC[N+](C)(C)C)OC (stereo not given) [EDELFOSINE]
- GI50 (MDA-MB-435): 98.4 µM (inactive)
- GI50 (CCRF-CEM): 7.62 µM (inactive)
- GI50 (MCF7): 27.5 µM (inactive)
- GI50 (HL-60): 3.94 µM (inactive)
- GI50 (TK-10): 19 µM (inactive)
- GI50 (SNB-75): 8.75 µM (inactive)
- GI50 (OVCAR-3): 34.3 µM (inactive)
- GI50 (SF-295): 9.66 µM (inactive)
- GI50 (OVCAR-8): 32.1 µM (inactive)
- GI50 (HCT-15): 3.36 µM
- GI50 (EKVX): 44.3 µM (inactive)
- GI50 (COLO 205): 2.65 µM (inactive)
- GI50 (NCI-H460): 7.05 µM (inactive)
- GI50 (A549): 21.4 µM (inactive)
- GI50 (786-0): 22.3 µM (inactive)
- GI50 (BT-549): 48.8 µM (inactive)
- GI50 (SK-MEL-28): 41.2 µM (inactive)
- GI50 (A498): 19.8 µM (inactive)
- GI50 (SNB-19): 20.7 µM (inactive)
- GI50 (HCC 2998): 2.38 µM (inactive)
